Values after ≈ are worked out from the molar mass of the structure shown.
Columns and labels:
[1] = test system: MCF7; assay: Cytotoxicity against human MCF7 cells; format: functional, cell-based
[2] = test system: MCF7; assay: Antitumor activity in human MCF7 cells xenografted in mouse model assessed as tumor volume measured after 12 days relative to control; format: functional; conditions: time 12 day
[3] = test system: Escherichia coli; assay: Antibacterial activity against Escherichia coli by agar dilution method; format: functional
[4] = test system: Pseudomonas aeruginosa; assay: Antibacterial activity against Pseudomonas aeruginosa by agar dilution method; format: functional
[5] = test system: Staphylococcus aureus; assay: Antibacterial activity against Staphylococcus aureus by agar dilution method; format: functional
[6] = test system: Bacillus subtilis; assay: Antibacterial activity against Bacillus subtilis by agar dilution method; format: functional
[7] = test system: Escherichia coli; assay: Potency index, ratio of ampicillin MIC to compound MIC for Escherichia coli by agar dilution method; format: functional
[8] = test system: Staphylococcus aureus; assay: Potency index, ratio of ampicillin MIC to compound MIC for Staphylococcus aureus by agar dilution method; format: functional
[9] = test system: Bacillus subtilis; assay: Potency index, ratio of ampicillin MIC to compound MIC for Bacillus subtilis by agar dilution method; format: functional
[10] = test system: Candida albicans; assay: Antifungal activity against Candida albicans by agar dilution method; format: functional
[11] = test system: Aspergillus niger; assay: Antifungal activity against Aspergillus niger by agar dilution method; format: functional
[12] = Antioxidant activity assessed as DPPH radical scavenging activity; format: functional
[13] = test system: Mus musculus; assay: Anticonvulsant activity in BALB/c mouse assessed as increase in survival rate at 60 mg/kg, ip by PTZ method relative to control; format: functional
[14] = test system: Mycobacterium tuberculosis; format: functional; conditions: time 5 day
[15] = test system: Mycobacterium tuberculosis; format: functional; conditions: time 5 day; remark: listed apart in the source
[16] = test system: Mycobacterium tuberculosis; format: functional; conditions: time 5 day; remark: listed apart in the source
[17] = test system: Escherichia coli; assay: Antibacterial activity against Escherichia coli incubated for 24 hrs by disc diffusion method; format: functional
[18] = test system: Aspergillus fumigatus; assay: Antifungal activity against Aspergillus fumigatus incubated for 24 hrs by disc diffusion method; format: functional
[19] = test system: Aspergillus niger; assay: Antifungal activity against Aspergillus niger incubated for 24 hrs by disc diffusion method; format: functional
[20] = test system: Aspergillus flavus; assay: Antifungal activity against Aspergillus flavus incubated for 24 hrs by disc diffusion method; format: functional
[21] = test system: Mycobacterium tuberculosis; assay: microbe, parasite or virus in culture; conditions: 120 h
[22] = test system: Staphylococcus aureus; assay: microbe, parasite or virus in culture; conditions: 24 h
[23] = test system: Bacillus subtilis; assay: microbe, parasite or virus in culture; conditions: 24 h
[24] = test system: Pseudomonas aeruginosa; assay: microbe, parasite or virus in culture; conditions: 24 h
[25] = test system: Candida albicans; assay: microbe, parasite or virus in culture; conditions: 24 h
[26] = test system: Klebsiella pneumoniae; assay: Antimicrobial activity against Klebsiella pneumoniae; format: functional
[27] = test system: Staphylococcus aureus; assay: microbe, parasite or virus in culture
[28] = test system: Escherichia coli; assay: microbe, parasite or virus in culture
[29] = Inhibition of Bacillus subtilis DNA gyrase
[30] = test system: Staphylococcus aureus; assay: microbe, parasite or virus in culture; remark: listed apart in the source
[31] = test system: Bacillus subtilis; assay: microbe, parasite or virus in culture
[32] = test system: ECa-109 cell line; assay: Anticancer activity against human Eca-109 cells by MTS assay; format: functional, cell-based
[33] = Anticancer activity against human HCC446 cells by MTS assay; format: functional, cell-based
[34] = test system: AGS; assay: Anticancer activity against human AGS cells by MTS assay; format: functional, cell-based
[35] = species on record: Mus musculus; assay: Antidepressant activity in Swiss albino mouse assessed as decrease in duration of immobility by tail suspension test relative to control; format: functional; design: scale not given: the % may be the effect or the level left
[36] = test system: Mus musculus; assay: Antidepressant activity in Swiss albino mouse assessed as decrease in duration of immobility at 100 mg/kg, po by forced swimming test relative to control; format: functional; design: scale not given: the % may be the effect or the level left
[37] = species on record: Mus musculus; assay: Antidepressant activity in Swiss albino mouse assessed as decrease in immobility time by forced swimming test; format: functional
[38] = species on record: Mus musculus; assay: Antidepressant activity in Swiss albino mouse assessed as decrease in immobility time by tail suspension test; format: functional
[39] = test system: Plasmodium falciparum; assay: Antimalarial activity against chloroquine-sensitive Plasmodium falciparum 3D7; format: functional, organism-based
[40] = test system: Staphylococcus aureus; assay: Antibacterial activity against Staphylococcus aureus; format: functional
[41] = test system: Escherichia coli; assay: Antibacterial activity against Escherichia coli; format: functional
[42] = test system: Rhizopus arrhizus; assay: Antifungal activity against Rhizopus oryzae; format: functional
[43] = molecular target: Carbonic anhydrase 1 (Homo sapiens, UniProt P00915); assay: Inhibition of human CA1 by UV spectrophotometric analysis
[44] = molecular target: Carbonic anhydrase 2 (Homo sapiens, UniProt P00918); assay: Inhibition of human CA2 by UV spectrophotometric analysis
[45] = molecular target: Acetylcholinesterase (Homo sapiens, UniProt P22303)
Chain of Acetylcholinesterase (P22303 whole entry): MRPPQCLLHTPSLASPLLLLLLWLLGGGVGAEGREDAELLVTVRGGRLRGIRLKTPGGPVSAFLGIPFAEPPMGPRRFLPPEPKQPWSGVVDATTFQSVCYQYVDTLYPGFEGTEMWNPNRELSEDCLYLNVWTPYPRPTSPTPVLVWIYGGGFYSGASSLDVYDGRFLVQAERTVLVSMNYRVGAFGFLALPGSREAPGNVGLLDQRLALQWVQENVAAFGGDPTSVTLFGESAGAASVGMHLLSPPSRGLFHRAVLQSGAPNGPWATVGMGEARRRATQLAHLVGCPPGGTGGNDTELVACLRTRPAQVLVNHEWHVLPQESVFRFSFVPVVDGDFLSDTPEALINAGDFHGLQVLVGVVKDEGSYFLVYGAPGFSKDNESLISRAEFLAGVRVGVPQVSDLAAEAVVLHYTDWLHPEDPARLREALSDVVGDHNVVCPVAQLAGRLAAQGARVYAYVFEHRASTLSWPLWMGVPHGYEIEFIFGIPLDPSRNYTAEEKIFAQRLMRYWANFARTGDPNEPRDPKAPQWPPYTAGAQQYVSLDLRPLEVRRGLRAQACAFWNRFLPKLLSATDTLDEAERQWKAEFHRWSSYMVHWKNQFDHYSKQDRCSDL

Chain of Carbonic anhydrase 1 (P00915 whole entry): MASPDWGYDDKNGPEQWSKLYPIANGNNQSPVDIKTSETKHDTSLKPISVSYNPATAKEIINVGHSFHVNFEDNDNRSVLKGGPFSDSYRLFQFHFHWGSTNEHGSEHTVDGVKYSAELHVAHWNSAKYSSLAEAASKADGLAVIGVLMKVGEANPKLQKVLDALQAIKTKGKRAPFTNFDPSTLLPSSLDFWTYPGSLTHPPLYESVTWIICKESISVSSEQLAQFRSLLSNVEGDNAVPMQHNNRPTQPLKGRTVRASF

CC(=O)Oc1ccc2c(c1)CC[C@@H]1[C@@H]2CC[C@]2(C)C3=NN(c4ccccc4)C(c4cccs4)C3C[C@@H]12 (stereo not given in full)
IC50 [1]: 43 nM
Activity [2]: 87%

COc1cccc2cc(/C=C/C(=O)c3cc(Br)ccc3O)c3nnnn3c12
MIC [3]: 50 µg/mL (≈ 118 µM)
MIC [4]: 25 µg/mL (≈ 58.8 µM)
MIC [5]: 50 µg/mL (≈ 118 µM)
MIC [6]: 50 µg/mL (≈ 118 µM)
Ratio [7]: 2
Ratio [8]: 5
Ratio [9]: 5
MIC [10]: 25 µg/mL (≈ 58.8 µM)
MIC [11]: 25 µg/mL (≈ 58.8 µM)
IC50 [12]: 22.4 µg/mL (≈ 52.7 µM)

O=C(Nc1ccc(Cl)cc1)N1N=C(c2ccc(Br)s2)CC1c1c(Cl)cccc1Cl (stereo not given)
survival at 60 mg/kg [13]: 95%

O=C(NNS(=O)(=O)c1ccccc1)N1N=C(c2ccccc2)CC1c1ccccc1 (stereo not given)
Ratio [14]: 7.81
Ratio [15]: 3.9
Ratio [16]: 3.9
MIC [17]: 25 µg/mL (≈ 59.5 µM)
MIC [18]: 25 µg/mL (≈ 59.5 µM)
MIC [19]: 25 µg/mL (≈ 59.5 µM)
MIC [20]: 25 µg/mL (≈ 59.5 µM)
MIC [21]: 0.8 µg/mL (≈ 1.9 µM)
MIC [22]: 25 µg/mL (≈ 59.5 µM)
MIC [23]: 25 µg/mL (≈ 59.5 µM)
MIC [24]: 25 µg/mL (≈ 59.5 µM)
MIC [25]: 25 µg/mL (≈ 59.5 µM)

CCOC(=O)C1N=NN(CC(=O)N2N=C(c3ccccc3)CC2c2cccs2)C1C(=O)OCC (stereo not given)
MIC [26]: 15 µg/mL (≈ 31 µM)
MIC [27]: 3.9 µg/mL (≈ 8.07 µM)
MIC [28]: 3.9 µg/mL (≈ 8.07 µM)

CC(=O)N1N=C(c2ccc(C)cc2)CC1c1cc(Cl)ccc1Oc1c([N+](=O)[O-])cc(C(F)(F)F)cc1[N+](=O)[O-] (stereo not given)
IC50 [29]: 0.125 µg/mL (≈ 0.222 µM)
MIC [30]: 0.39 µg/mL (≈ 0.693 µM)
MIC [31]: 0.39 µg/mL (≈ 0.693 µM)

C[C@]12CCC3(CC1=CCC1C2CC[C@]2(C)C4=NN[C@H](c5ccccc5)[C@H]4CC12)OCCO3 (stereo not given in full)
IC50 [32]: 17500 nM
IC50 [33]: 25300 nM
IC50 [34]: 27400 nM

COc1cc(C2CC(c3ccc(-c4cc(F)cc(F)c4)nc3C)=NN2)cc(OC)c1OC (stereo not given)
Activity [35]: 64.56%
Activity [36]: 66.58%
Time [37]: 66.67 s
Time [38]: 70.33 s

COc1cc(C2CC(c3cc4ccccc4oc3=O)=NN2c2ccccc2)cc(OC)c1OC (stereo not given)
IC50 [39]: 11.6 µg/mL (≈ 25.5 µM)
MIC [40]: 10 µg/mL (≈ 21.9 µM)
MIC [41]: 12.5 µg/mL (≈ 27.4 µM)
MIC [42]: 12.5 µg/mL (≈ 27.4 µM)

COc1ccc(C2CC(c3ccccc3)=NN2c2ccc(S(N)(=O)=O)cc2)cc1OC (stereo not given)
Ki [43]: 27.9 nM
Ki [44]: 27.4 nM
Ki [45]: 37.7 nM

Reference: ChEMBL document CHEMBL5260848, “Recent advancements in the development of bioactive pyrazoline derivatives” (Eur J Med Chem, 2020)
